Source: patent publication US20100216779A1 (GLAXOSMITHKLINE LLC, priority 2007, published 2010)

Key:
Format in all cases: cell-based
[1] = target: T1, IR (NIH-3T3 cells over expressing human IGF-1R or IR) (Homo sapiens, UniProt P06213); experiment: IR cellular autophosphorylation (DELFIA); details: NIH-3T3 cells over expressing IR, insulin stimulated
T1 construct: expressed in transfected cells; host or cells: NIH-3T3 (mouse fibroblasts)
In short: (§1)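 Readout: DELFIA on lysates, with anti-IGF-1R or anti-IR capture and europium anti-pTyr detection, expressed relative to 100% ligand-stimulated signal. Human IGF-1R- or IR-overexpressing NIH-3T3 cells got compound (1.5 nM–30 uM) for 2 h before 15 min IGF-1 (30 ng/mL) or insulin (3 ug/mL).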

[2] = system: NCI-H929 (multiple myeloma); experiment: Inhibition of cell proliferation, CellTiter-Glo, NCI-H929; details: Homo sapiens, 72 h
In short: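 Cells were grown in medium with 10% FBS at 37° C, 5% CO2. Cell number was read as CellTiter-Glo luminescence (cellular ATP), with untreated wells as control.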

[3] = target: T2, human IGF-1R (NIH-3T3 cells over expressing human IGF-1R) (Homo sapiens, UniProt P08069); experiment: IGF-1R cellular autophosphorylation (DELFIA); details: IGF-1 stimulated
T2 construct: expressed in transfected cells; host or cells: NIH-3T3 (mouse fibroblasts)
T2 sequence (P08069 31-1367): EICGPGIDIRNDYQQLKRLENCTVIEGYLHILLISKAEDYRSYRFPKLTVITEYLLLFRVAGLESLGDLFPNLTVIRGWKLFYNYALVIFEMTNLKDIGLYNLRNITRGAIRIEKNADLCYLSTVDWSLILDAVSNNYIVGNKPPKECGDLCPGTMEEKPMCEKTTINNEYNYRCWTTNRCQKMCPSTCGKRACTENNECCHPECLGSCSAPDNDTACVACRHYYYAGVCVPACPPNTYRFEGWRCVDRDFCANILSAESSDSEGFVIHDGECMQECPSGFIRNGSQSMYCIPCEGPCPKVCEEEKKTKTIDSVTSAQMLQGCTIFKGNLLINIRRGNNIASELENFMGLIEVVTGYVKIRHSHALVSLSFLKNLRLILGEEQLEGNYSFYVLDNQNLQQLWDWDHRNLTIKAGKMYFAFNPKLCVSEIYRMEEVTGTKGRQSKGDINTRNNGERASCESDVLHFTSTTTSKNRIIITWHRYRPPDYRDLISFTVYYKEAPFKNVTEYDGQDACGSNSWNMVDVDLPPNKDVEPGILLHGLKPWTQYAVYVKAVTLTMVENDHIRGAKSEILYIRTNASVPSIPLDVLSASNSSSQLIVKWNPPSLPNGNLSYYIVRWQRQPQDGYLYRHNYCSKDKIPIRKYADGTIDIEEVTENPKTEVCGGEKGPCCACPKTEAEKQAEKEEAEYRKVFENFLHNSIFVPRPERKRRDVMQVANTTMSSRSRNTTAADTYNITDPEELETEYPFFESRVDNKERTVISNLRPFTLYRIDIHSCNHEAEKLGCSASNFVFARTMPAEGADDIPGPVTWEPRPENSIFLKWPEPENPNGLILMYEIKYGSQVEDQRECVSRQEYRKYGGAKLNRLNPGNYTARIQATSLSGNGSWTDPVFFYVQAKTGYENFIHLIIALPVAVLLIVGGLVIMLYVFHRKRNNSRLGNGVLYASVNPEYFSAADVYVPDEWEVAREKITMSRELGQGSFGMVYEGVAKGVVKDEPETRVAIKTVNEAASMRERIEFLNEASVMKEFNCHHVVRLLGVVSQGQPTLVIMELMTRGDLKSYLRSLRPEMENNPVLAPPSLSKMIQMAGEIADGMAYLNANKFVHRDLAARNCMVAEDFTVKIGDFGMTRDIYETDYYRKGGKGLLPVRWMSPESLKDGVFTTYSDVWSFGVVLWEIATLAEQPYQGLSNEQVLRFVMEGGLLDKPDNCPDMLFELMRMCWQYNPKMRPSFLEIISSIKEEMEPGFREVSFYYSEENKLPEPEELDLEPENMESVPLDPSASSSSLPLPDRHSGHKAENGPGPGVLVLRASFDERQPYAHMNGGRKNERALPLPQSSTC
In short: as §1

[4] = system: COLO205 (colon); experiment: Inhibition of cell proliferation, CellTiter-Glo, COLO205; details: Homo sapiens, COLO 205, 72 h
In short: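 Exponentially growing COLO205 cells in medium with 10% FBS were plated below 2000 cells/well at 37 °C, 5% CO2. Untreated wells served as controls.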

T1 sequence (P06213 28-1382): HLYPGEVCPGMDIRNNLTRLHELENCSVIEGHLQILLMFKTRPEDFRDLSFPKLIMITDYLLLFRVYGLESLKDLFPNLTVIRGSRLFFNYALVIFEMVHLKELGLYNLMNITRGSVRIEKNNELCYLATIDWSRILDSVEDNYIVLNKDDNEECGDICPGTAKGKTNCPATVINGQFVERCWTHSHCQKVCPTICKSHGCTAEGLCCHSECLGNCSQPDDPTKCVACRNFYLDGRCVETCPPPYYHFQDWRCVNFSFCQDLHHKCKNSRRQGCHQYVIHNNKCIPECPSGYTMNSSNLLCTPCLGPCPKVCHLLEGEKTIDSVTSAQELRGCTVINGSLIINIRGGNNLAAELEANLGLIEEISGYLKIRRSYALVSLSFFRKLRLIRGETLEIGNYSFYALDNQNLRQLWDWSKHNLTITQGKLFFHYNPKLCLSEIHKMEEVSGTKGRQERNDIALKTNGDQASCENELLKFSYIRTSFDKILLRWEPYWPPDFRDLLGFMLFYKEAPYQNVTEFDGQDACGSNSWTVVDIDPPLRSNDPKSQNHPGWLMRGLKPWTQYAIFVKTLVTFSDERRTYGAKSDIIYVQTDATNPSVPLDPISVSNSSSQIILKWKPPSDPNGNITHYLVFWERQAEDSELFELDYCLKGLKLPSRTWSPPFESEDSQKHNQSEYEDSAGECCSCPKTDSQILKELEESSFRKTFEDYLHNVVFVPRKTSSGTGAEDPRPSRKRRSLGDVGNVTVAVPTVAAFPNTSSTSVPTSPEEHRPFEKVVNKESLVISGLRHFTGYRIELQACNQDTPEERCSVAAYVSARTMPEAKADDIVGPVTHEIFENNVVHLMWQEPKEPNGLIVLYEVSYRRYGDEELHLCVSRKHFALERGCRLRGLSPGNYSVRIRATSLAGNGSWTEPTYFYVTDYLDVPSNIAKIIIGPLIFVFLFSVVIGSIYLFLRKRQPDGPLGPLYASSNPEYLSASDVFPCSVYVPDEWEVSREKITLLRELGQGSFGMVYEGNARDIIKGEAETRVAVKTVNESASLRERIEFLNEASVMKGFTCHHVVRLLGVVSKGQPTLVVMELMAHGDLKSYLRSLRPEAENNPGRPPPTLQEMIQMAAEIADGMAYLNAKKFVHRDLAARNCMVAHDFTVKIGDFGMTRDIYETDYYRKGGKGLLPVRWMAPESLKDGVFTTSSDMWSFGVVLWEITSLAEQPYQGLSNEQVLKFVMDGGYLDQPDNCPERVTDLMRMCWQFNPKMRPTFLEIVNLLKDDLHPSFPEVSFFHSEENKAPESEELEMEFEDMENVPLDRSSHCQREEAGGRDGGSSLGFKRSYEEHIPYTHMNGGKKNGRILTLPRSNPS

Row | SMILES | IC50 [1] [nM] | IC50 [2] [nM] | IC50 [3] [nM] | IC50 [4] [nM]
1 | CCCc1cc(C2CCN(CCS(C)(=O)=O)CC2)ccc1Nc1nccc(-c2c(-c3cccc(C(=O)Nc4c(F)cccc4F)c3)nc3ccccn23)n1 [Example 166, N-(2,6-difluorophenyl)-3-(3-{2-[(4-{1-[2-(methylsulfonyl)ethyl]-4-piperidinyl}-2-propylphenyl)amino]-4-pyrimidinyl}imidazo[1,2-a]pyridin-2-yl)benzamide] | 100 to 500 | 250 to 1000 | < 100 | 250 to 1000
2 | CCOc1cc(N2CCC(N3CCN(CCF)CC3)CC2)ccc1Nc1nccc(-c2c(-c3cccc(C(=O)Nc4c(F)cccc4F)c3)nc3ccccn23)n1 [Example 116, N-(2,6-difluorophenyl)-3-(3-{2-[(2-(ethyloxy)-4-{4-[4-(2-fluoroethyl)-1-piperazinyl]-1-piperidinyl}phenyl)amino]-4-pyrimidinyl}imidazo[1,2-a]pyridin-2-yl)benzamide] | < 100 | 250 to 1000 | < 100 | 250 to 1000
3 | COc1c(Nc2nccc(-c3c(-c4cccc(C(=O)Nc5c(F)cccc5F)c4)nc4ccccn34)n2)ccc(N2CCC(N3CCCCC3)CC2)c1C [Example 54, 3-[3-(2-{[4-(1,4′-bipiperidin-1′-yl)-3-methyl-2-(methyloxy)phenyl]amino}-4-pyrimidinyl)imidazo[1,2-a]pyridin-2-yl]-N-(2,6-difluorophenyl)benzamide] | > 500 | > 1000 | > 500 | > 1000
4 | COc1cc(N2CCC(N3CCN(S(C)(=O)=O)CC3)CC2)c(C)cc1Nc1nccc(-c2c(-c3cccc(C(=O)Nc4c(F)cccc4F)c3)nc3ccccn23)n1 [Example 245, N-(2,6-difluorophenyl)-3-(3-{2-[(5-methyl-2-(methyloxy)-4-{4-[4-(methylsulfonyl)-1-piperazinyl]-1-piperidinyl}phenyl)amino]-4-pyrimidinyl}imidazo[1,2-a]pyridin-2-yl)benzamide] | < 100 | < 250 | < 100 | 250 to 1000
5 | COc1cc(N2CCC(N3CCN(CCF)CC3)CC2)ccc1Nc1nccc(-c2c(-c3ccc(OC)c(C(=O)Nc4c(F)cccc4F)c3)nc3cc(F)ccn23)n1 [Example 197, N-(2,6-difluorophenyl)-5-[7-fluoro-3-(2-{[4-{4-[4-(2-fluoroethyl)-1-piperazinyl]-1-piperidinyl]-2-(methyloxy)phenyl]amino}-4-pyrimidinyl)imidazo[1,2-a]pyridin-2-yl]-2-(methyloxy)benzamide] | < 100 | < 250 | < 100 | 250 to 1000
6 | CCCN1CCC(c2ccc(Nc3nccc(-c4c(-c5cccc(C(=O)Nc6c(F)cccc6F)c5)nc5ccccn45)n3)c(OCC)c2)CC1 [Example 155, N-(2,6-difluorophenyl)-3-[3-(2-{[2-(ethyloxy)-4-(1-propyl-4-piperidinyl)phenyl]amino}-4-pyrimidinyl)imidazo[1,2-a]pyridin-2-yl]benzamide] | < 100 | < 250 | < 100 | 250 to 1000
7 | CC(C)Cc1cc(N2CCC(N3CCCCC3)CC2)ccc1Nc1nccc(-c2c(-c3cccc(C(=O)Nc4c(F)cccc4F)c3)nc3ccccn23)n1 [Example 42, 3-[3-(2-{[4-(1,4′-bidideridin-1′-yl)-2-(2-methylpropyl)phenyl]amino}-4-pyrimidinyl)imidazo[1,2-a]pyridin-2-yl]-N-(2,6-difluorophenyl)benzamide] | > 500 | > 1000 | < 100 | > 1000
8 | COc1cc(N2CCC(N3CCN(S(C)(=O)=O)CC3)CC2)ccc1Nc1nccc(-c2c(-c3cccc(C(=O)Nc4c(F)cccc4F)c3)nc3c(C)cccn23)n1 [Example 68, N-(2,6-difluorophenyl)-3-(8-methyl-3-{2-[(2-(methyloxy)-4-{4-[4-(methylsulfonyl)-1-piperazinyl]-1-piperidinyl}phenyl)amino]-4-pyrimidinyl}imidazo[1,2-a]pyridin-2-yl)benzamide] | 100 to 500 | 250 to 1000 | 100 to 500 | 250 to 1000

Other lines, results leading:

Row | IC50 [1] [nM] | IC50 [2] [nM] | IC50 [3] [nM] | IC50 [4] [nM] | SMILES
9 | < 100 | < 250 | < 100 | 250 to 1000 | COCCN1CCN(c2ccc(Nc3nccc(-c4c(-c5ccc(OC)c(C(=O)Nc6c(F)cccc6F)c5)nc5ccccn45)n3)c(OC)c2)CC1 [Example 239, N-(2,6-difluorophenyl)-2-(methyloxy)-5-(3-{2-[(2-(methyloxy)-4-{4-[2-(methyloxy)ethyl]-1-piperazinyl}phenyl)amino]-4-pyrimidinyl}imidazo[1,2-a]pyridin-2-yl)benzamide]
10 | 100 to 500 | 250 to 1000 | < 100 | 250 to 1000 | COc1cc(N2CCC(N3CCN(CCS(C)(=O)=O)CC3)CC2)ccc1Nc1nccc(-c2c(-c3cccc(C(=O)Nc4c(F)cccc4F)c3)nc3c(C)cccn23)n1 [Example 67, N-(2,6-difluorophenyl)-3-[8-methyl-3-(2-{[2-(methyloxy)-4-(4-{4-[2-(methylsulfonyl)ethyl)-1-piperazinyl}-1-piperidinyl)phenyl]amino]-4-pyrimidinyl)imidazo[1,2-a]pyridin-2-yl]benzamide]
11 | < 100 | < 250 | < 100 | < 250 | CCOc1cc(N2CCN(CCS(C)(=O)=O)CC2)c(CC)cc1Nc1nccc(-c2c(-c3ccc(OCC)c(C(=O)Nc4c(F)cccc4F)c3)nc3ccccn23)n1 [Example 211, N-(2,6-difluorophenyl)-5-(3-{2-[(5-ethyl-2-(ethyloxy)-4-{4-[2-(methylsulfonyl)ethyl]-1-piperazinyl}phenyl)amino]-4-pyrimidinyl}imidazo[1,2-a]pyridin-2-yl)-2-(ethyloxy)benzamide]
12 | < 100 | < 250 | < 100 | 250 to 1000 | COc1cc(C2CCN(CC(C)C)CC2)ccc1Nc1nccc(-c2c(-c3ccc(OC)c(C(=O)Nc4c(F)cccc4F)c3)nc3ccccn23)n1 [Example 160, N-(2,6-difluorophenyl)-2-(methyloxy)-5-{3-[2-({2-(methyloxy)-4-[1-(2-methylpropyl)-4-piperidinyl]phenyl}amino)-4-pyrimidinyl]imidazo[1,2-a]pyridin-2-yl}benzamide]
13 | < 100 | < 250 | < 100 | < 250 | CCCN1CCC(c2cc(OC)c(Nc3nccc(-c4c(-c5ccc(OCC)c(C(=O)Nc6c(F)cccc6F)c5)nc5ccccn45)n3)cc2C)CC1 [Example 158, N-(2,6-difluorophenyl)-2-(ethyloxy)-5-[3-(2-{[5-methyl-2-(methyloxy)-4-(1-propyl-4-piperidinyl)phenyl]amino}-4-pyrimidinyl)imidazo[1,2-a]pyridin-2-yl]benzamide]
14 | < 100 | 250 to 1000 | < 100 | 250 to 1000 | COc1cc(N2CCC(C3CCN(CCS(C)(=O)=O)CC3)CC2)ccc1Nc1nccc(-c2c(-c3ccc(OC)c(C(=O)Nc4c(F)cccc4F)c3)nc3ccccn23)n1 [Example 98, N-(2,6-difluorophenyl)-2-(methyloxy)-5-(3-{2-[(2-(methyloxy)-4-{1′-[2-(methylsulfonyl)ethyl]-4,4′-bipiperidin-1-yl}phenyl)amino]-4-pyrimidinyl}imidazo[1,2-a]pyridin-2-yl)benzamide]
15 | < 100 | < 250 | < 100 | 250 to 1000 | CCOc1cc(N2CCN(CCS(C)(=O)=O)CC2)ccc1Nc1nccc(-c2c(-c3ccc(OC)c(C(=O)Nc4c(F)cccc4F)c3)nc3ccccn23)n1 [Example 143, N-(2,6-difluorophenyl)-5-(3-{2-[(2-(ethyloxy)-4-{4-[2-(methylsulfonyl)ethyl)-1-piperazinyl}phenyl)amino]-4-pyrimidinyl}imidazo[1,2-a]pyridin-2-yl)-2-(methyloxy)benzamide]
16 | < 100 | < 250 | < 100 | < 250 | COc1cc(N2CCN(S(C)(=O)=O)CC2)c(C)cc1Nc1nccc(-c2c(-c3cccc(C(=O)Nc4c(F)cccc4F)c3)nc3ccccn23)n1 [Example 226, N-(2,6-difluorophenyl)-3-{3-[2-({5-methyl-2-(methyloxy)-4-[4-(methylsulfonyl)-1-piperazinyl]phenyl}amino)-4-pyrimidinyl]imidazo[1,2-a]pyridin-2-yl}benzamide]
17 | < 100 | < 250 | < 100 | 250 to 1000 | CCOc1ccc(-c2nc3ccccn3c2-c2ccnc(Nc3ccc(N4CCC(N5CCN(CCS(C)(=O)=O)CC5)CC4)cc3OC)n2)cc1C(=O)Nc1c(F)cccc1F [Example 66, N-(2,6-difluorophenyl)-2-(ethyloxy)-5-[3-(2-{[2-(methyloxy)-4-(4-{4-[2-(methylsulfonyl)-ethyl]-1-piperazinyl}-1-piperidinyl)phenyl]amino}-4-pyrimidinyl)imidazo[1,2-a]pyridin-2-yl]benzamide]
18 | < 100 | < 250 | < 100 | 250 to 1000 | CCOc1ccc(-c2nc3ccccn3c2-c2ccnc(Nc3cc(C)c(N4CCN(CCOC)CC4)cc3OC)n2)cc1C(=O)Nc1c(F)cccc1F [Example 241, N-(2,6-difluorophenyl)-2-(ethyloxy)-5-(3-{2-[(5-methyl-2-(methyloxy)-4-{4-[2-(methyloxy)ethyl]-1-piperazinyl}phenyl)amino]-4-pyrimidinyl}imidazo[1,2-a]pyridin-2-yl)benzamide]
